# How the values were obtained:
# Test in all cases: relative viability (nuclei count vs DMSO), 5 days (fraction); higher = more cells survive
# [1] = compound: Nc1ccn([C@@H]2O[C@H](CO)[C@@H](O)C2(F)F)c(=O)n1 [Gemcitabine] + COc1cc2c(Oc3ccc(NC(=O)C4(C(=O)Nc5ccc(F)cc5)CC4)cc3F)ccnc2cc1OCCCN1CCOCC1 [Foretinib] (partner 0.25 µM)
# Method in brief: (§1)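 A single step with final 0.05% Triton X-100, 1% formaldehyde and 1 ug/ml Hoechst fixed the cells and stained nuclei 5 days after treatment. Lung cancer cell lines in 1536-well plates had been treated by pin tool the day after seeding with one drug alone or a fixed anchor-drug dose plus five library-drug doses (not always all listed) in √10 steps, and nuclei were counted on 4× images. Relative viability is the ratio of nuclei in treated wells to nuclei in vehicle wells, taken as the median of duplicate plates.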
# [2] = compound: Nc1ccn([C@@H]2O[C@H](CO)[C@@H](O)C2(F)F)c(=O)n1 [Gemcitabine] + CS(=O)(=O)N1CCN(Cc2cc3nc(-c4cccc5[nH]ncc45)nc(N4CCOCC4)c3s2)CC1 [Pictilisib] (partner 1 µM)
# Method in brief: as §1
# [3] = compound: Nc1ccn([C@@H]2O[C@H](CO)[C@@H](O)C2(F)F)c(=O)n1 [Gemcitabine] + NC(=O)Nc1cc(-c2cccc(F)c2)sc1C(=O)N[C@H]1CCCNC1 [AZD7762] (partner 0.2 µM)
# Method in brief: as §1
# [4] = compound: Nc1ccn([C@@H]2O[C@H](CO)[C@@H](O)C2(F)F)c(=O)n1 [Gemcitabine] + O=C(CCCCCCC(=O)Nc1ccccc1)NO [Vorinostat] (partner 1 µM)
# Method in brief: as §1
Cell Line,relative viability ([1]; first compound 0.001 µM),relative viability ([1]; first compound 0.01 µM),relative viability ([1]; first compound 0.03162 µM),relative viability ([1]; first compound 0.1 µM),relative viability ([2]; first compound 0.001 µM),relative viability ([2]; first compound 0.003162 µM),relative viability ([2]; first compound 0.01 µM),relative viability ([2]; first compound 0.03162 µM),relative viability ([2]; first compound 0.1 µM),relative viability ([3]; first compound 0.001 µM),relative viability ([3]; first compound 0.003162 µM),relative viability ([3]; first compound 0.01 µM),relative viability ([3]; first compound 0.03162 µM),relative viability ([3]; first compound 0.1 µM),relative viability ([4]; first compound 0.003162 µM),relative viability ([4]; first compound 0.01 µM),relative viability ([4]; first compound 0.03162 µM),relative viability ([4]; first compound 0.1 µM),relative viability ([1]; first compound 0.003162 µM),relative viability ([4]; first compound 0.001 µM)
ABC-1,0.886,1.06,0.312,0.17,0.907,0.832,0.599,0.38,0.278,0.748,0.757,0.964,0.295,0.304,1.26,1.06,0.303,0.256,,
HCC-15,1.12,1.01,0.152,0.0815,0.763,0.804,0.762,0.323,0.0914,1.03,1.21,1.18,0.129,0.113,0.815,0.739,0.247,0.109,1.07,0.908
NCI-H2170,1.02,0.909,0.3,0.518,0.318,0.359,0.215,0.157,0.156,0.889,0.771,0.128,0.106,0.108,0.843,0.538,0.113,0.105,1.03,0.829
PC-3 [JPC-3],1.15,0.605,0.28,0.228,0.847,0.61,0.514,0.33,0.286,0.761,0.482,0.336,0.35,0.299,0.536,0.36,0.338,0.366,0.847,0.659
NCI-H1993,0.561,0.61,0.63,0.588,0.855,0.804,0.651,0.695,0.647,0.74,0.483,0.398,0.439,0.346,0.904,0.547,0.471,0.317,0.833,0.723
NCI-H358,0.729,0.0883,0.0934,0.0705,0.338,0.27,0.188,0.194,0.161,0.201,0.245,0.16,0.23,0.126,0.186,0.0888,0.113,0.0707,0.168,0.988
NCI-H1915,1.1,1.04,0.908,0.468,1.02,0.949,0.909,0.857,0.229,0.768,0.662,0.656,0.127,0.0991,0.5,0.45,0.391,0.258,1.1,0.49
RERF-LC-KJ,0.942,0.958,0.799,0.326,0.775,0.458,0.408,0.304,0.168,1.14,1,0.951,0.233,0.181,0.682,0.709,0.452,0.246,0.89,0.661

# From the supplement of paper PMC10307832
